Source: ChEMBL document CHEMBL1128959, “Quinoline-substituted dihydroindoles as cysLT1 (LTD4 receptor) antagonists” (Bioorg Med Chem Lett, 1996)

system: Cavia porcellus; experiment: Inhibition of aerosol administered LTD4-induced airway obstruction after oral administration in guinea pig 2 hr after administration; format: functional

| SMILES | Inhibition |
| --- | --- |
| Clc1ccc2ccc(/C=C/c3cccc(CN4CCc5cccc(CCc6nnn[nH]6)c54)c3)nc2c1 | 91% |
| Clc1ccc2ccc(COc3ccc(CN4CCc5cccc(CCc6nnn[nH]6)c54)cc3)nc2c1 | 51% |
| Clc1ccc2ccc(COc3ccc(Cn4ccc5cccc(CCc6nnn[nH]6)c54)cc3)nc2c1 | 16% |
| Clc1ccc2ccc(/C=C/c3cccc(Cn4ccc5cccc(CCc6nnn[nH]6)c54)c3)nc2c1 | 69% |

system: Cavia porcellus; experiment: Inhibition of aerosol administered LTD4-induced airway obstruction after oral administration in guinea pig 6 hr after administration; format: functional

| SMILES | Inhibition |
| --- | --- |
| Clc1ccc2ccc(/C=C/c3cccc(CN4CCc5cccc(CCc6nnn[nH]6)c54)c3)nc2c1 | 74% |
| Clc1ccc2ccc(COc3ccc(CN4CCc5cccc(CCc6nnn[nH]6)c54)cc3)nc2c1 | 81% |
| Clc1ccc2ccc(/C=C/c3cccc(Cn4ccc5cccc(CCc6nnn[nH]6)c54)c3)nc2c1 | 21% |

molecular target: T1, Cysteinyl leukotriene receptor 1 (Cavia porcellus) (UniProt Q2NNR5); experiment: Compound was tested for its inhibitory activity against specific binding of [3H]LTD4 to guinea pig ileum.; format: tissue-based
T1 sequence (whole entry): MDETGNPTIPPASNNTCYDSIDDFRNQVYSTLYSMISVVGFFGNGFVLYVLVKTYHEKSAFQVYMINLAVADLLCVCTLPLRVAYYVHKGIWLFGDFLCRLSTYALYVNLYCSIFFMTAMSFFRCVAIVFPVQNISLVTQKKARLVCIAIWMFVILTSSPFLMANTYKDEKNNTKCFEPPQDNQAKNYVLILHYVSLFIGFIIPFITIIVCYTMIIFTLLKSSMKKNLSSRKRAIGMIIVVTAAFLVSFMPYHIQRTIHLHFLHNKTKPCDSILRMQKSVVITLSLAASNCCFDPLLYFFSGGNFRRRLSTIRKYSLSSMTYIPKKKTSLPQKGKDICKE

| SMILES | pKB |
| --- | --- |
| Clc1ccc2ccc(/C=C/c3cccc(CN4CCc5cccc(CCc6nnn[nH]6)c54)c3)nc2c1 | 8.6 |
| C(=C\c1ccc2ccccc2n1)/c1cccc(CN2CCc3cccc(CCc4nnn[nH]4)c32)c1 | 8.6 |
| c1cc(CCc2nnn[nH]2)c2c(c1)CCN2Cc1ccc(OCc2ccc3ccccc3n2)cc1 | 8.3 |

The next lines start with the values.

| pKB | SMILES |
| --- | --- |
| 8.5 | Clc1ccc2ccc(COc3ccc(CN4CCc5cccc(CCc6nnn[nH]6)c54)cc3)nc2c1 |
| 8.6 | Clc1ccc2ccc(/C=C/c3cccc(CN4CCc5cccc(OCc6nn[nH]n6)c54)c3)nc2c1 |
| 8.6 | Clc1ccc2ccc(/C=C/c3ccc(CN4CCc5cccc(CCc6nnn[nH]6)c54)cc3)nc2c1 |
| 8.4 | Clc1ccc2ccc(COc3cccc(CN4CCc5cccc(CCc6nnn[nH]6)c54)c3)nc2c1 |

molecular target: T1, Cysteinyl leukotriene receptor 1 (Cavia porcellus); experiment: Compound was tested for its inhibitory activity against specific binding of [3H]LTD4 to guinea pig trachea.; format: tissue-based

| SMILES | pKB |
| --- | --- |
| Clc1ccc2ccc(/C=C/c3cccc(CN4CCc5cccc(CCc6nnn[nH]6)c54)c3)nc2c1 | 7 |
| c1cc(CCc2nnn[nH]2)c2c(c1)CCN2Cc1ccc(OCc2ccc3ccccc3n2)cc1 | 7.9 |

More lines, now with the values ahead:

| pKB | SMILES |
| --- | --- |
| 7.6 | Clc1ccc2ccc(COc3ccc(CN4CCc5cccc(CCc6nnn[nH]6)c54)cc3)nc2c1 |
| 7.8 | Clc1ccc2ccc(COc3cccc(CN4CCc5cccc(CCc6nnn[nH]6)c54)c3)nc2c1 |

molecular target: T2, Cysteinyl leukotriene receptor 1 (Cavia porcellus, UniProt Q2NNR5); experiment: Compound was tested for its inhibitory activity against specific binding of [3H]LTD4 to guinea pig lung membrane.; format: tissue-based
T2 sequence (Q2NNR5 whole entry): T1 sequence (whole entry)

| Ki | SMILES |
| --- | --- |
| 5.01 nM | Clc1ccc2ccc(/C=C/c3cccc(CN4CCc5cccc(OCc6nn[nH]n6)c54)c3)nc2c1 |
| 31.6 nM | Clc1ccc2ccc(/C=C/c3ccc(CN4CCc5cccc(CCc6nnn[nH]6)c54)cc3)nc2c1 |
